# What was measured:
# [1] = test system: C2C12 cells; assay: mtDNA level and mitochondrial density (MitoTracker) in differentiated C2C12 cells; type: cell-based, murine
# Protocol: (§1) Murine skeletal muscle cells, C2C12 cells, were purchased from the Korean Cell Line Bank. The cells were cultured using a Dulbecco's modified Eagle's medium (DMEM) supplemented with 20% fetal bovine serum (FBS; HyClone, USA) and 1% antibiotics (penicillin/streptomycin). When the cells reached 50% confluency (the degree of proliferation) under 5% CO2 (v/v) at 37° C., the cells were subcultured and maintained.
# (§2) To differentiate the cells, the medium was replaced with DMEM containing 2% horse serum (HyClone), and after 7 days of differentiation, the cells were used in the experiment.
# C2C12 cells differentiated for 7 days as described in Example 2-1 were treated with 12.5, 25 or 50 μM of an azelaic acid. After 24 hours, RNA and proteins were extracted according to the following method, and used in the experiment. For a control, instead of an azelaic acid, the same amount of DMSO was treated.
# After treatment with azelaic acid, the change in mitochondrial density was detected using MitoTracker. C2C12 cells were treated with an azelaic acid for 24 hours, and then washed with PBS. Subsequently, a medium containing […] of MitoTracker, i.e., a green probe, was added thereto, and the cells were cultured for 30 minutes. The mitochondrial density was measured by quantifying wavelengths of a part binding to the tracker, which absorbs a wavelength at 490 nm and emits a wavelength at 516 nm, using SpectraMax. Image analysis was performed using a confocal microscope and Zeiss LSM700 version 3.2 software (Carl Zeiss, Germany).
# The differentiated C2C12 cells were treated with azelaic acid, treated with 300 μL of a lysis buffer (20 mM EDTA, 100 mM Tris, 200 mM NaCl, 0.2% Triton X-100, 100 μg/mL) per well, and cultured at 37° C. for 90 minutes, and the extracted supernatant was treated with the same amount of isopropanol and 25 μL of a 4M NaCl solution. After storage at −20° C. overnight, distilled water (D.W.) was added to a pellet obtained by centrifugation (14,000 rpm, RT, 20 min), thereby extracting mtDNA. […] A gene expression level was analyzed using the iQ5 Cycler System (Bio-Rad, USA).
# [2] = test system: Hepa1c1c-7 cells; assay: MTT assay, cytotoxicity of azelaic acid; type: cell-based; settings: 0 to 500 μM, 24 hours, compared to the control group
# Protocol: To evaluate cytotoxicity of an azelaic acid, an MTT assay was performed. The MTT assay is a test method utilizing the ability of mitochondria to reduce MTT tetrazolium, which is a yellow water-soluble substrate, to non-water-soluble MTT formazan showing a blue-violet color by a dehydrogenase. The MTT reagent was prepared by being diluted in phosphate buffered saline (PBS) at a concentration of 2 to 5 mg/mL. Hepalcic-7 cells used in this experiment were purchased from the Korean Cell Line Bank, and cultured in a minimum essential medium Eagle alpha modification medium (MEM-alpha, Hyclone) supplemented with 10% FBS and 1% PEST. For this experiment, the Hepa1c1c-7 cells (4×10^4 cell/mL) were seeded into a 96-well plate and incubated at 37° C. under 5% CO2 for 24 hours, and then incubated for 24 hours by adding an azelaic acid in a concentration range of 0 to 500 μM. Afterward, each sample was treated with 100 μL of the MTT reagent (4 mg/mL), incubated at 37° C. under 5% CO2 for 4 hours and treated with 100 μL of dimethyl sulfoxide (DMSO), followed by measuring absorbance at 540 nm. Since the absorbance level is proportional to a cell count, a cell death effect caused by toxicity may be quantified.
# [3] = test system: Olfr544; assay: PGC-1α expression in Scr siRNA normal and Olfr544 knockdown C2C12 cells; type: cell-based, murine; settings: 50 μM
# Protocol: (§3) The differentiated skeletal muscle cells, C2C12 cells, were transfected with 200 pmol of scramble (control) or Olfr544 siRNA duplex (Santa Cruz, USA) using the Lipofectamine 2000 reagent (Invitrogen, USA) for 6 hours. Subsequently, another transfection was performed for 10 to 12 hours. The transfected cells were used for RNA or protein extraction.
# qPCR was performed to synthesize cDNA using RNA extracted from cells grown in a culture medium and then treated with 300 μL of the RNAiso plus reagent per well. Subsequently, the synthesized cDNA was subjected to qPCR using the Thunderbird TMSYBR® qPCR Mix reagent (Takara Bio Inc., Japan). A gene expression level was analyzed using the iQ5 Cycler System (Bio-Rad, USA).
# (§4) Protein extraction was performed using an RIPA buffer (10 mM Tris-HCl, pH 7.5, 1% NP-40, 0.1% sodium deoxycholate, 0.1% SDS, 150 mM NaCl, and 1 mM EDTA), a Halt™ protease and a phosphatase inhibitor reagent (Thermo, USA). As primary antibodies, anti-α-tubulin (1:1000) and anti-PGC-1α (1:500; Santa Cruz Biotechnology, Santa Cruz, USA) were used. The resulting immunoblotting image was analyzed using the ChemiDoc™ touch imaging system and Image Lab 5.2 software (Bio-Rad, PA, USA).
# [4] = test system: PGC-1α; assay: PGC-1α gene and protein expression in differentiated C2C12 cells (qPCR, immunoblotting); type: cell-based, murine; settings: 50 μM, 24 hours, compared to DMSO control
# Protocol: as §1, §2
# C2C12 cells differentiated for 7 days as described in Example 2-1 were treated with 12.5, 25 or 50 μM of an azelaic acid. […]
# qPCR was performed to synthesize cDNA using RNA extracted from cells grown in a culture medium and then treated with 300 μL of the RNAiso plus reagent per well. […] A gene expression level was analyzed using the iQ5 Cycler System (Bio-Rad, USA).
# as §4, with “As primary antibodies, anti-α-tubulin (1:1000) and anti-PGC-1α (1:500; Santa Cruz Biotechnology, Santa Cruz, USA) were used.” left out
# [5] = test system: Olfr544; assay: mtDNA and mitochondrial density in Scr siRNA normal and Olfr544 knockdown C2C12 cells; type: cell-based, murine
# Protocol: as §3
# (§5) The differentiated C2C12 cells were treated with azelaic acid, treated with 300 μL of a lysis buffer (20 mM EDTA, 100 mM Tris, 200 mM NaCl, 0.2% Triton X-100, 100 μg/mL) per well, and cultured at 37° C. for 90 minutes, and the extracted supernatant was treated with the same amount of isopropanol and 25 μL of a 4M NaCl solution. After storage at −20° C. overnight, distilled water (D.W.) was added to a pellet obtained by centrifugation (14,000 rpm, RT, 20 min), thereby extracting mtDNA. Afterward, 2 μl of DNA, 10 μl of the SYBR green PCR master mix, 0.5 μL of each of a forward primer and a reverse primer having a concentration of 10 pmol, and 6.6 μL of sterile distilled water were mixed, and qPCR was performed using the Thunderbird TMSYBR® qPCR Mix reagent (Takara Bio Inc., Japan). A gene expression level was analyzed using the iQ5 Cycler System (Bio-Rad, USA).
# The change in mitochondrial DNA content and abundance were determined using MitoTracker. Olfr544 siRNA-transfected cells were treated with an azelaic acid at a concentration of 50 μM for 24 hours, and then washed with PBS. Afterward, a medium containing 200 nM of the MitoTracker green probe was added to the cells, and the cells were cultured for 30 minutes. The mitochondrial density was measured by quantifying wavelengths of a part binding to the tracker, which absorbs a wavelength at 490 nm and emits a wavelength at 516 nm, using SpectraMax. The images were obtained by the Zeiss LSM700 confocal microscope, and then analyzed using the Zeiss LSM700 version 3.2 software (Carl Zeiss, Germany)
# [6] = test system: muscle tissue of mice; assay: Intraperitoneal injection to normal and Olfr544 knockout mice, muscle tissue protein expression; type: in vivo, mouse; settings: intraperitoneal 100 mg/kg; for pERK/ERK protein expression increase in muscle: compared with control
# Description: FIG. 7A to FIG. 7E are diagrams showing mechanisms of promoting mitochondrial biogenesis according to Olfr544 activity of an azelaic acid in mice (FIG. 7A: the images showing pCREB, CREB, PGC-1α, ERK1/2, pERK1/2 and LC3 proteins expression, FIG. 7B: analysis for pCREB and CREB protein expression levels, FIG. 7C: analysis for PGC-1α protein expression per an azelaic acid treatment time, FIG. 7D: analysis for pERK and ERK protein expression levels, and FIG. 7E: analysis for LC3 protein expression per an azelaic acid treatment time in muscle tissue extracted 30 and 120 minutes after an azelaic acid is intraperitoneally injected into normal mice and Olfr544 KO mice).
# (§6) 8-week-old ICR male […] and C57BL/6J were purchased from Samtako (Gyeonggi-do, Seoul), and Olfr544 knockout mice from which exon 2 (161-428 bp) of an Olfr544 gene was removed using a CRISPR-Cas9 system were purchased from Macrogen (Seoul, Korea). All animal experiments were carried out in accordance with the experimental method (Protocol No. KUIACUC-2016-97) approved by the Animal Experiment Ethics Committee at Korea University. In the breeding environment, a 12-hour light cycle, a room temperature of 25 to 31° C., and relative humidity of […] were maintained. The mice were freely fed a 60% high-fat diet, and randomly divided into 4 groups (n=7, two groups for normal mice, and the other two groups for knockout (KO) mice). For exact Olfr544 activation, the mice were fasted overnight, and then intraperitoneally injected with an azelaic acid (100 mg/kg of body weight). For a control, the same amount of PBS was intraperitoneally injected. In an experiment for long-term administration of an azelaic acid, the azelaic acid was orally administered at a dose of 100 mg/kg of body weight. During the last week of the experimental period (6 weeks), the mice fasted for 16 hours were anesthetized and sacrificed. The collected muscle tissue was put into a freezing tube, immediately put into liquid nitrogen, and then stored at −80° C.
# [7] = test system: muscle tissue of HFD-induced obese mice; assay: Oral administration for 6 weeks to HFD-induced obese normal and Olfr544 knockout mice, muscle tissue qPCR and mtDNA; type: in vivo, mouse; settings: oral 100 mg/kg
# Protocol: as §6
# cDNA was synthesized using RNA extracted by adding the RNAiso plus reagent to murine muscle cells. Subsequently, the synthesized cDNA was subjected to qPCR using the Thunderbird TMSYBR® qPCR Mix reagent (Takara Bio Inc., Japan). A gene expression level was analyzed using the iQ5 Cycler System (Bio-Rad, USA).
# as §5, with “Murine muscle” for “The differentiated C2C12”, “with” for “with azelaic acid, treated with 300 μL of”, “μg/mL),” for “μg/mL) per well,”
# [8] = test system: Olfr544; assay: Immunoblotting of pCREB, pERK1/2 and LC3II/LC3I in normal and Olfr544 knockdown C2C12 cells; type: cell-based, murine
# Protocol: The differentiated skeletal muscle cells, C2C12 cells, were transfected with 200 pmol of scramble (control) or Olfr544 siRNA (Santa Cruz, USA) using the Lipofectamine 2000 reagent (Invitrogen, USA) for 6 hours. Subsequently, one more transfection was performed for 10 to 12 hours. After 24 hours, the transfected cells were treated with an azelaic acid and used for protein extraction.
# as §4, with “antibodies, anti-CREB (1:250), anti-p-CREB (Ser133; 1:500), anti-β-actin (1:1000),” for “antibodies,”, “(1:1000), anti-ERK1/2 (1:500), anti-p-ERK1/2 (Thr53,54, 1:500),” for “(1:1000)”, “used. In addition, anti-LC3B (1:500) was purchased from Novus Biologicals (Novus Biologicals, USA).” for “used.”
# [9] = Scr siRNA-transfected normal C2C12 cells
# [10] = Olfr544 knockdown C2C12 cells, 50 μM, 24 hours
# [11] = normal mice, 30 minutes after injection
# [12] = normal mice, 120 minutes after injection
smiles,measurement,setting,value
"O=C(O)CCCCCCCC(=O)O [azelaic acid, nonanedioic acid]",mitochondrial density (MitoTracker quantification),"[1]; 50 μM, 24 hours",significantly increased
same,"mtDNA level, increase over control","[1]; 50 μM, 24 hours",about 2.5 fold
same,"mitochondrial density, MitoTracker images under confocal fluorescence microscopy",[1]; treated group compared to control group,substantial increases
same,"toxicity (cell viability, MTT assay)",[2],toxicity was not observed at any concentration
same,PGC-1α mRNA level,[3]; Olfr544 knockdown C2C12 cells,this effect is not shown
same,PGC-1α protein level,[3]; Olfr544 knockdown C2C12 cells,this effect is not shown
same,PGC-1α mRNA level,[3]; [9],significantly increases
same,PGC-1α protein level,[3]; [9],significantly increases
same,PGC-1α gene expression,[4],increased
same,PGC-1α protein expression,[4],increased
same,mitochondrial density (quantification),"[5]; C2C12 normal cells, azelaic acid (50 µM)",enrichment of mitochondria
same,mitochondrial density change,[5]; [10],no changes
same,mtDNA change,[5]; [10],no changes
same,mtDNA increase,"[5]; azelaic acid-treated normal C2C12 cells, 50 μM, 24 hours",about 1.6 fold
same,LC3II/LC3I protein expression in muscle,[6]; Olfr544 knockout mice,no change
same,pERK/ERK protein expression in muscle,[6]; Olfr544 knockout mice,no change
same,LC3II/LC3I protein expression increase in muscle,[6]; [11],1.5 fold
same,pERK/ERK protein expression increase in muscle,[6]; [11],2.5 fold
same,LC3II/LC3I protein expression in muscle,[6]; [12],not changed
same,pERK/ERK protein expression increase in muscle,[6]; [12],2.8 fold
same,PGC-1α mRNA expression in muscle,[7]; Olfr544 knockout HFD mice,no changes
same,Tfa gene expression in muscle,[7]; Olfr544 knockout HFD mice,no change
same,mt DNAs in muscle,[7]; Olfr544 knockout HFD mice,no change
same,Tfa gene expression increase in muscle,[7]; normal HFD mice,about 3.3 fold
same,PGC-1α mRNA expression increase in muscle,"[7]; normal HFD mice, compared to control group",about 1.9 fold
same,mt DNAs in muscle,"[7]; normal HFD mice, compared to non-administered mice",increased
same,LC3II/LC3I protein expression,[8]; Olfr544 knockdown C2C12 cells,this effect disappeared
same,pCREB expression change,[8]; Olfr544 knockdown C2C12 cells,no change
same,pCREB expression increase,[8]; normal (Scr siRNA) C2C12 cells,about 2 fold
same,LC3II/LC3I protein expression increase,"[8]; normal C2C12 cells, compared to the control group",about 3 fold
same,phosphorylated ERK1/2 protein expression increase,[8]; skeletal muscle cells (C2C12),1.5 fold
